Reference: US20040209283A1, “Continuous-read assay for the detection of de novo HCV RNA polymerase activity” (Pfizer Inc., priority 2002, published 2004)
Values belong to the compound of their own block, whether it stands above or below them.

Assays:
[1] = tested on: C delta 21 NS5B; test: Continuous-read fluorescence assay of de novo NS5B polymerase activity; type: biochemical, Hepatitis C virus (HCV)
Method: Reactions were prepared by first placing 0.5 μL of 100% DMSO into the wells of an assay plate (Corning, black, 384-well, NBS #3654). In reactions in which modulators or inhibitors of RNA polymerase activity are to be identified, a test compound may be added to the DMSO. A solution (Solution-1) containing 162 nM of C delta 21 NS5B and 28 nM NR-2 in an assay buffer comprising 20 mM Tris-HCl, pH 7.5; 100 mM ammonium acetate; 2 mM MnCl2; 10 mM DTT; and 2 mM CHAPS, was then prepared and incubated at ambient temperature for a minimum of 15 minutes. During this incubation, a second solution (Solution-2) was prepared by mixing 76 nM of PicoGreen® with 2.7 μM UTP, 2.7 μM CTP, 2.7 μM ATP, 67 μM GTP in the assay buffer that is described above. Next, 10 μL of Solution-1 was added to the wells of the assay plate containing DMSO and the plate was incubated for 15 minutes at ambient temperature. […]
The reactions were monitored on a LJL Analyst (Molecular Devices Corp.; Sunnyvale, Calif.), which excited the PicoGreen® at 485 nm and detected PicoGreen® fluorescence at 530 nm.
The effect of increasing concentrations of PicoGreen® on reaction kinetics was also assessed. […] The calculated initial velocity (v0=span x kexp) increased as the concentration of PicoGreen® was increased from 50 to 600 nM, and appeared to plateau at between 600 and 800 nM PicoGreen® (FIG. 5C).

[2] = tested on: double-stranded NR-2; test: Binding of PicoGreen to double-stranded NR-2 at varying buffer component concentrations (fluorescence intensity); settings: for Fluorescence Intensity (% of control ± SD; n = 2): 7 nM double-stranded NR2, 600 nM PicoGreen; for effect on the binding of PicoGreen to the double-stranded template: at the concentrations tested
Method: To assess the effect of buffer component concentration on the binding of PicoGreen® to double-stranded NR-2, mixtures containing 7 nM double-stranded NR2, 600 nM PicoGreen®, and varying concentrations of the buffer components were prepared, and the fluorescence intensities of these mixtures were measured. These mixtures were prepared using between 4 fold less to 1.25 to 2 fold more of the individual buffer components (relative to the amount of the components used in the reactions described in Example 1).

[3] = component final concentration 0.5 mM
[4] = component final concentration 1 mM
[5] = component final concentration 2 mM
[6] = component final concentration 4 mM

SMILES: CC(=O)O.N [Ammonium Acetate]
effect on NS5B activity ([1]; 100 mM ammonium acetate): appeared to enhance NS5B activity
inhibition of PicoGreen binding ([2]; at 100 mM): 5%
inhibition of PicoGreen binding ([2]; at 125 mM): 10%
Fluorescence Intensity (% of control ± SD; n = 2) ([2]; component final concentration 12.5 mM): 105 ± 1 % of control
Fluorescence Intensity (% of control ± SD; n = 2) ([2]; component final concentration 25 mM): 103 ± 1 % of control
Fluorescence Intensity (% of control ± SD; n = 2) ([2]; component final concentration 50 mM): 109 ± 1 % of control
Fluorescence Intensity (% of control ± SD; n = 2) ([2]; component final concentration 100 mM): 95 ± 1 % of control
Fluorescence Intensity (% of control ± SD; n = 2) ([2]; component final concentration 125 mM): 89 ± 2 % of control

SMILES: C[C@H](CCC(=O)NCCC[N+](C)(C)CCCS(=O)(=O)[O-])[C@H]1CC[C@H]2[C@@H]3[C@H](O)C[C@@H]4C[C@H](O)CC[C@]4(C)[C@H]3C[C@H](O)[C@]12C [CHAPS]
effect on the binding of PicoGreen to the double-stranded template [2]: Neither DTT nor chaps affected the binding
Fluorescence Intensity (% of control ± SD; n = 2) [2, 3]: 98 ± 3 % of control
Fluorescence Intensity (% of control ± SD; n = 2) [2, 4]: 96 ± 1 % of control
Fluorescence Intensity (% of control ± SD; n = 2) [2, 5]: 96 ± 1 % of control
Fluorescence Intensity (% of control ± SD; n = 2) [2, 6]: 102 ± 1 % of control

Fluorescence Intensity (% of control ± SD; n = 2) ([2]; component final concentration 2.5 mM): 98 ± 5 % of control
Fluorescence Intensity (% of control ± SD; n = 2) ([2]; component final concentration 5 mM): 100 ± 2 % of control
Fluorescence Intensity (% of control ± SD; n = 2) ([2]; component final concentration 10 mM): 100 ± 1 % of control
Fluorescence Intensity (% of control ± SD; n = 2) ([2]; component final concentration 20 mM): 96 ± 3 % of control
SMILES: O[C@@H](CS)[C@@H](O)CS [DTT]
effect on the binding of PicoGreen to the double-stranded template [2]: Neither DTT nor chaps affected the binding

inhibition of the binding of PicoGreen to the template ([2]; at 2 mM): approximately 35%
inhibition of the binding of PicoGreen to the template ([2]; at 4 mM): ~55%
Fluorescence Intensity (% of control ± SD; n = 2) [2, 3]: 96 ± 2 % of control
Fluorescence Intensity (% of control ± SD; n = 2) [2, 4]: 82 ± 1 % of control
Fluorescence Intensity (% of control ± SD; n = 2) [2, 5]: 65 ± 1 % of control
Fluorescence Intensity (% of control ± SD; n = 2) [2, 6]: 45 ± 2 % of control
SMILES: [Cl][Mn][Cl] [MnCl2]

SMILES: CN(C)CCCN(CCCN(C)C)c1cc(C=C2Sc3ccccc3N2C)c2ccccc2[n+]1-c1ccccc1 [PicoGreen®, reference compound]
change of experimental rate constant (kexp) of the first-order reaction ([1]; at 600 nM PicoGreen): slightly less than a two-fold decrease
